# Reference: PubChem BioAssay (NCI)
#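 Tested at 5 concentrations; 48 h exposure; 96-well plates; endpoints linearly interpolated, else capped at highest concentration. GI50: concentration for 50% inhibition of growth. TGI: total growth inhibition.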
# Tests used:
# Assay in all cases: NCI tumour cell line growth inhibition, 48 h
# DU-145 prostate = tested on: DU-145 prostate
# MDA-MB-231 breast = tested on: MDA-MB-231 breast
# MDA-MB-435 = tested on: MDA-MB-435
# NCI/ADR-RES ovarian = tested on: NCI/ADR-RES ovarian
# PC-3 prostate = tested on: PC-3 prostate
# T-47D breast = tested on: T-47D breast
# 786-0 renal = tested on: 786-0 renal
# DMS 273 small cell lung = tested on: DMS 273 small cell lung
# KM20L2 colon = tested on: KM20L2 colon
# M19-MEL melanoma = tested on: M19-MEL melanoma
# BT-549 breast = tested on: BT-549 breast
# HS 578T breast = tested on: HS 578T breast
Structure (SMILES),TGI (DU-145 prostate),TGI (MDA-MB-231 breast),TGI (MDA-MB-435),TGI (NCI/ADR-RES ovarian),TGI (PC-3 prostate),TGI (T-47D breast),TGI (786-0 renal),TGI (DMS 273 small cell lung),TGI (KM20L2 colon),TGI (M19-MEL melanoma),TGI (BT-549 breast),TGI (HS 578T breast),further results
C[C@]12CC[C@@H]3c4ccc(OCCN5CCCC5)cc4CC[C@H]3[C@@H]1CCC2=O,> 100 µM,68.7 µM,> 100 µM,> 100 µM,> 100 µM,> 100 µM,–,–,–,–,–,–,–
O=C(O)c1nccnc1C(=O)O,–,–,–,–,–,–,> 100 µM,> 100 µM,> 100 µM,> 100 µM,–,–,–
Cc1ccc(C2CC(c3cccc(Nc4ccncc4)c3)=NN2c2ccccc2)cc1 (configuration not stated),3.6 µM,–,3.06 µM,–,3.24 µM,4.85 µM,–,–,–,–,3.37 µM,–,GI50 (BT-549 breast): 1.81 µM; GI50 (DU-145 prostate): 1.89 µM; GI50 (MDA-MB-435): 1.64 µM; GI50 (PC-3 prostate): 1.59 µM; GI50 (T-47D breast): 2.02 µM
C[N+](C)([O-])Cc1cc(-c2ccccc2)ccc1O,> 100 µM,> 100 µM,> 100 µM,> 100 µM,> 100 µM,> 100 µM,> 100 µM,–,–,–,> 100 µM,> 100 µM,–
O=c1nc2sc3ccc4ccccc4c3n2[nH]c1=O,–,–,–,–,–,–,–,> 100 µM,99 µM,–,–,–,–
CCCCN=C1OCc2[nH][nH]c(=O)c21,–,–,–,–,–,–,–,> 100 µM,> 100 µM,> 100 µM,–,–,–
CCCOC1OC(CS(=O)(=O)O)C(O)C(O)C1O (configuration not stated),> 100 µM,–,> 100 µM,> 100 µM,> 100 µM,> 100 µM,–,–,–,–,> 100 µM,> 100 µM,–
COc1cc2c(c(OC(C)=O)c1OC(C)=O)-c1ccc(SC)c(=O)cc1C(NC(C)=O)CC2 (configuration not stated),–,–,–,–,–,–,> 100 µM,> 100 µM,10.4 µM,> 73.5 µM,–,–,–
[O-][n+]1c(-c2ccccc2)c2nc3ccccc3nc2c2ccccc21,–,–,–,–,–,–,> 100 µM,> 100 µM,> 100 µM,> 100 µM,–,–,–
N#CCCN(CCC#N)c1ccc(/C=C2\N=C(c3cc([N+](=O)[O-])ccc3Cl)N(NC(=O)CC(=O)Nc3ccccc3Cl)C2=O)cc1,–,–,–,–,–,–,–,> 100 µM,34.5 µM,> 100 µM,–,–,–
CCN(CC)CCNc1ccc2nnn3c4ccccc4c(=O)c1c23,–,–,–,–,–,–,20.7 µM,14.3 µM,15.1 µM,17.2 µM,–,–,–
CCOC(=O)NC(Nc1ccc(Cl)cn1)(C(F)(F)F)C(F)(F)F,> 100 µM,> 100 µM,> 100 µM,–,–,> 100 µM,–,–,–,–,> 100 µM,> 100 µM,–
CC(C)CN(CC#N)CC(C)C,> 100 µM,> 100 µM,> 100 µM,> 100 µM,> 100 µM,> 100 µM,> 100 µM,–,–,–,> 100 µM,> 100 µM,–
O=C(O)Cn1c2c(c3c(O)cccc31)C(=O)c1ccccc1-2,> 100 µM,> 100 µM,> 100 µM,> 100 µM,–,> 100 µM,–,–,–,–,> 100 µM,> 100 µM,GI50 (BT-549 breast): 12.8 µM; GI50 (DU-145 prostate): 0.0519 µM; GI50 (HS 578T breast): > 100 µM; GI50 (MDA-MB-231 breast): > 100 µM; GI50 (MDA-MB-435): > 100 µM; GI50 (NCI/ADR-RES ovarian): > 100 µM; GI50 (T-47D breast): > 100 µM
NC(N)=NC(N)=Nc1ccccc1 (tested in a mixture with another compound),> 100 µM,> 100 µM,> 100 µM,> 100 µM,> 100 µM,81.4 µM,> 100 µM,–,–,–,> 100 µM,> 100 µM,–
C=CCc1cccc(/C=N\N=C(/N)NO)c1O,–,–,–,> 29.3 µM,–,–,–,16.5 µM,31.8 µM,–,–,–,–
